Assay results from paper PMC7759012 (Biochemistry, 2020).

Columns and labels:
Format in all cases: binding
[1] = target: BirA (E. coli biotin protein ligase; BirA wt) (Escherichia coli, UniProt P06709, R118A); test: ITC, direct titration, single-site model
[2] = target: BirA (E. coli biotin protein ligase; BirA wt) (Escherichia coli, UniProt P06709, K183A); test: ITC, direct titration, single-site model
[3] = target: BirA (E. coli biotin protein ligase; BirA wt) (Escherichia coli, UniProt P06709, E313A); test: ITC, direct titration, single-site model
[4] = target: BirA (E. coli biotin protein ligase; BirA wt) (Escherichia coli, UniProt P06709); test: ITC, TAPS, proton linkage; conditions: pH 6.0; 10 mM Bistris, citrate or MES with 200 mM KCl, 2.5 mM MgCl2

**Q.** How did the Kd [1] turn out when `Nc1ncnc2c1ncn2[C@@H]1O[C@H](COP(=O)(O)OC(=O)CCCC[C@@H]2SC[C@@H]3NC(=O)N[C@@H]32)[C@@H](O)[C@H]1O` [bio-5'-AMP] was run?
**A.** Its Kd is 1.3 nM.

**Q.** What about the Kd [2] of the same compound?
**A.** The Kd was 22 nM.

**Q.** What about the Kd [3] of the same compound?
**A.** The Kd was 10 nM.

**Q.** How did the “ITC, TAPS, proton linkage (enthalpy only)” value [4] turn out when `Nc1ncnc2c1ncn2[C@@H]1O[C@H](COP(=O)(O)OCCCCC[C@@H]2SC[C@@H]3NC(=O)N[C@@H]32)[C@@H](O)[C@H]1O` [btnOH-AMP] was run?
**A.** The value was “btnOH-AMP binding to BirA^wt is linked to proton release”.
